Laboratory results as given in patent US12041939B2, “Enzyme-loaded pollen-mimicking microparticles for organophosphate detoxification of insect pollinators” (priority 2020, dated 2024).
Read-outs that look alike come from different tables or passages of the source.

Legend:
[1] = tested on: acetylcholinesterase (AChE); conditions: versus malathion; cited from earlier work
bumblebees [2] = assay: contaminated pollen balls fed without enzyme treatment; conditions: no enzyme treatment, after one week
honeybees = conditions: cited from earlier work
AChE = AChE activity assay in homogenized honeybees with paraoxon; type: biochemical, honeybee; conditions: 0.5 mM paraoxon
Source text: FIGS. 5A-5F. Characterization of OPT-PIM efficacy through AChE activity assay and bee survival experiments. FIG. 5A is a schematic showing that formation of thiocholine from acetylthiocholine through AChE cleavage can be characterized using 5,5′-dithiobis-2-nitrobenzoic acid (DTNB). DTNB and thiocholine react to form TNB^2-, the absorbance of which can be measured at 412 nm. […] For this experiment, n=9. The positive control is homogenized honeybee cells without any paraoxon treatment; the negative control is homogenized honeybee cells treated with paraoxon but no free OPT or OPT-PIMs treatment. […]. […] FIG. 5E is a plot of exposure to paraoxon (15 μg g^−1 pollen) over 10 days (n=50). FIG. 5F is a plot of exposure to malathion (750 μg g^−1 pollen) over 10 days (n=50). Statistical analysis was performed by using one-way ANOVA tests (FIGS. 5B and 5D). Data are presented as means and error bars represent the standard deviation.
Efficacy and survival studies. The characterization of OPT-PIM efficacy was further validated via quantification of AChE activity when mixed with the above described treatment and paraoxon. […] Acetylthiocholine cleavage via AChE can be used to quantify AChE activity, as the thiocholine product reacts with DTNB to form TNB^2−, which has an absorbance at 412 nm (FIG. 5A). […]

[3] = type: biochemical
Method: Further experiments were aimed at better understanding the stability of the detoxifying system under significant thermal stress, as any treatment could experience high summer temperatures when administered to bees. […] Thus, experiments were conducted to determine whether microparticle encapsulation offers any protection from thermal denaturation. […]. […] The foregoing result is important for the potential application of the present design, as it has been shown capable of being administered at elevated temperatures.

[4] = malathion hydrolysis assay (DTNB); type: biochemical; conditions: OPT 0.5 mg ml^−1, 0.44 mM malathion
bumblebees [5] = assay: bumblebee survival on malathion-contaminated pollen balls; type: in vivo, Bombus impatiens
Source text: (§1) FIGS. 5A-5F. Characterization of OPT-PIM efficacy through AChE activity assay and bee survival experiments. FIG. 5A is a schematic showing that formation of thiocholine from acetylthiocholine through AChE cleavage can be characterized using 5,5′-dithiobis-2-nitrobenzoic acid (DTNB). DTNB and thiocholine react to form TNB^2-, the absorbance of which can be measured at 412 nm. […] For this experiment, n=9. The positive control is homogenized honeybee cells without any paraoxon treatment; the negative control is homogenized honeybee cells treated with paraoxon but no free OPT or OPT-PIMs treatment. […] FIG. 5E is a plot of exposure to paraoxon (15 μg g^−1 pollen) over 10 days (n=50). FIG. 5F is a plot of exposure to malathion (750 μg g^−1 pollen) over 10 days (n=50). Statistical analysis was performed by using one-way ANOVA tests (FIGS. 5B and 5D). Data are presented as means and error bars represent the standard deviation.
(§2) Bumblebees consume approximately […] depending on body mass. Based on this figure, pollen balls were initially formed containing 0.432 μg g^−1 paraoxon and 9.383 μg g^−1 malathion to feed without enzyme treatment as a negative control. […] Pollen balls were tested containing 50 μg g^−1 paraoxon over 12 hours to measure the OPT-PIM impact against acute exposure.

[6] = type: biochemical; conditions: for relative activity in paraoxon hydrolysis: OPT 0.5 mg ml^−1, 0.5 mM paraoxon, normalized to OPT-PIMs at pH 7.4
[7] = cited from earlier work
bumblebees [8] = type: in vivo, Bombus impatiens
Source text: as §1, §2

[9] = cited from earlier work; remark: listed apart in the source
[10] = type: biochemical; conditions: room temperature (25° C.)
Method: To gauge the time taken for treatment to lose functionality, bioactivity of each group treatment relative to OPT-PIMs was measured over time when kept at room temperature (25° C.). […] OPT-PIMs stored at 4° C. maintained almost 100% activity after 14 d (FIG. 3G). The microparticle's capacity for long-term bioactivity and protein sequestration indicates a practical shelf life of the design. Other enzyme-engineering efforts, such as genetic engineering of the catalytic and binding pockets, introducing additional chemical functionalities, such as disulfide bridges or fluorine moieties, or incorporation of additives such as sugars, polyols, detergents, polymers and amino acids, may improve the catalytic efficiency of OPT and further enhance its storage stability.

[11] = type: biochemical; conditions: methyl paraoxon, visible nitrophenol formation
Source text: Considering the loading efficiency decrease at higher PFCs and the intrinsic value of OPT, 5% was selected as a baseline to test OPT loading in PIMs. OPT presented 88.1% PLE (PLC=4.43%) at 5% PFC and 90.1% PLE (PLC=1.81%) at 2% PFC (FIG. 3C). […]. this dilution offered adequate sucrose to render the solution sufficiently attractive to bumblebees for consumption.

In the case of `CCOC(=O)CC(SP(=O)(OC)OC)C(=O)OCC` (centres unmarked) [Malaoxon], the “strength of AChE inhibition relative to malathion” value [1] is given as 1000 fold.
In the case of `CCOC(=O)CC(SP(=S)(OC)OC)C(=O)OCC` (centres unmarked) [malathion], the “health effect of contaminated pollen balls” value (bumblebees [2]; 9.383 μg g^−1 malathion in pollen balls) is given as “no health deterioration”, the “oral LD50” value (honeybees) is given as 0.38 μg/bee and the “oral LD50 for honeybees” value (honeybees) is given as 0.38 μg per bee.
For `CCOP(=O)(OCC)Oc1ccc([N+](=O)[O-])cc1` [paraoxon], the “health effect of contaminated pollen balls” value (bumblebees [2]; 0.432 μg g^−1 paraoxon in pollen balls) is listed as “no health deterioration”, the “relative AChE activity reduction” value (AChE; no free OPT or OPT-PIMs treatment (negative control)) is listed as ~72% and the “oral LD50 for honeybees” value (honeybees) is listed as 0.0175 μg per bee.
In the case of `CCOP(=S)(OCC)Oc1ccc([N+](=O)[O-])cc1` [parathion], the “oral LD50” value (honeybees) is given as 0.175 μg/bee.
In the case of “amidohydrolase phosphotriesterase [free OPT]”, the “relative activity in paraoxon hydrolysis after incubation” value (shortened to “relative activity … after incubation”) ([3]; 30° C., relative to OPT-PIMs at 30° C.) is reported as “half the bioactivity of OPT-PIMs”, the “relative activity … after incubation” value ([3]; 50° C., normalized to OPT-PIMs at 30° C.) is reported as 36.5% and the “relative activity … after incubation” value ([3]; temperature>60° C., normalized to OPT-PIMs at 30° C.) is reported as 5.0%. For the same compound, the “relative activity in malathion hydrolysis” value ([4]; pH 4.8) was 0.6%, the “relative activity in malathion hydrolysis” value ([4]; pH 7.4) was 17.1% and the mortality (bumblebees [5]; 750 μg g^−1 malathion pollen balls, after 5 days) was 100%. For the same compound, the survival (bumblebees [5]; microcolonies fed malathion-contaminated pollen patties, within/after 5 days (overview)) was 0%, the “relative activity in paraoxon hydrolysis” value ([6]; pH 4.8) was 1.7% and the “relative activity in paraoxon hydrolysis” value ([6]; pH 7.4) was 49.7%. The Km ([6]; paraoxon, in 2 g ml^−1 sucrose) was 4.8 mM, the “maximum velocity (Vmax)” value ([6]; paraoxon, in 2 g ml^−1 sucrose) was 0.13 mM/min and the “Kcat Km^−1” value [7] was 7.6e+07 M⁻¹ s⁻¹. For the same compound, the mortality (bumblebees [8]; 15 μg g^−1 paraoxon pollen balls, 50 μg ml^−1 OPT treatments, after 5 days) was 100%, the fatalities (bumblebees [8]; 50 μg g^−1 paraoxon pollen balls, 12 hours) was 62.5% and the deactivation temperature ([9]; Co2+ OPT complex, pH 8.0-9.5) was 60 °C. The “temperature at which thermostability is maintained” value ([9]; Co2+ OPT complex, pH 8.0-9.5) was “less than 45 °C”, the “activity relative to maximum potential” value ([9]; pH 7.0) was “less than half of its maximum potential” and the “activity retained on storage” value ([10]; after 7 days) was ~30%. The “activity retained on storage” value ([10]; after 14 days) was < 10%, the “OPT concentration sufficient to initiate rapid hydrolysis” value [11] was 0.5 mg/mL and the “AChE activity retained less than OPT-PIMs-treated samples” value (AChE) was 18.8%.
